Earlier results on two compounds are cited in patent US20210220286A1, “PHARMACEUTICAL COMPOSITION COMPRISING AMORPHOUS SUNITINIB” (SYNTHON B.V., priority 2018, published 2021).

For the data set the following is noted: WO03016305, cited from earlier work; for stability of polymorphic form: ambient conditions.

As for `CCN(CC)CCNC(=O)c1c(C)[nH]c(/C=C2\C(=O)Nc3ccc(F)cc32)c1C` [Form I, sunitinib L-malate], the “stability of polymorphic form” value is listed as “most stable form”.
With `CCN(CC)CCNC(=O)c1c(C)[nH]c(/C=C2\C(=O)Nc3ccc(F)cc32)c1C` [Form II, sunitinib L-malate], the “stability of polymorphic form” value is listed as “less stable” and the “hygroscopicity of polymorphic form” value is “hygroscopic”. For the same compound, where the note is “compared with form I”, the “solubility of polymorphic form” value is “more soluble”.
